Results taken from the NIST ThermoML archive (doi:10.1016/j.fluid.2007.07.063).
± gives the expanded uncertainty stated by the source. One block for each compound: values may come before it.

What was measured:
[1] = excess molar enthalpy (molar enthalpy of mixing); xn = mol fraction of the nth substance listed; settings: 298.15 K, 101 kPa, Liquid, Flow calorimetry
[2] = 298.15 K; 101.33 kPa; Liquid; Pycnometric method

Compound: C=CCCCCCC [oct-1-ene] + CCCO
- excess molar enthalpy ([1]; x2 = 0.094): 0.104 ± 0.00526 kcal/mol
- excess molar enthalpy ([1]; x2 = 0.189): 0.154 ± 0.00789 kcal/mol
- excess molar enthalpy ([1]; x2 = 0.302): 0.183 ± 0.00932 kcal/mol
- excess molar enthalpy ([1]; x2 = 0.398): 0.179 ± 0.00908 kcal/mol
- excess molar enthalpy ([1]; x2 = 0.495): 0.163 ± 0.00837 kcal/mol
- excess molar enthalpy ([1]; x2 = 0.593): 0.143 ± 0.00717 kcal/mol
- excess molar enthalpy ([1]; x2 = 0.693): 0.117 ± 0.00598 kcal/mol
- excess molar enthalpy ([1]; x2 = 0.799): 0.0814 ± 0.00406 kcal/mol
- excess molar enthalpy ([1]; x2 = 0.899): 0.0435 ± 0.00222 kcal/mol

Compound: CCCCCCO [hexan-1-ol]
- mass density [2]: 815.4 ± 0.78 kg/m3

Compound: CCCCCCCCO [octan-1-ol]
- mass density [2]: 822.47 ± 0.83 kg/m3

Compound: CCCCCCCCCCO [decan-1-ol]
- mass density [2]: 826.31 ± 0.74 kg/m3

Compound: C=CCCCCCC [oct-1-ene] + CCCCCCCCCCO
- excess molar enthalpy ([1]; x2 = 0.097): 0.0643 ± 0.00335 kcal/mol
- excess molar enthalpy ([1]; x2 = 0.195): 0.0875 ± 0.00454 kcal/mol
- excess molar enthalpy ([1]; x2 = 0.293): 0.0956 ± 0.00478 kcal/mol
- excess molar enthalpy ([1]; x2 = 0.406): 0.0924 ± 0.00478 kcal/mol
- excess molar enthalpy ([1]; x2 = 0.504): 0.0834 ± 0.0043 kcal/mol
- excess molar enthalpy ([1]; x2 = 0.602): 0.072 ± 0.00359 kcal/mol
- excess molar enthalpy ([1]; x2 = 0.7): 0.0578 ± 0.00287 kcal/mol
- excess molar enthalpy ([1]; x2 = 0.8): 0.0397 ± 0.00203 kcal/mol
- excess molar enthalpy ([1]; x2 = 0.902): 0.0182 ± 0.000956 kcal/mol

Compound: CCCO [propan-1-ol]
- mass density [2]: 799.65 ± 0.72 kg/m3

Compound: CCCCO [butan-1-ol]
- mass density [2]: 805.71 ± 0.73 kg/m3

Results, then the compound that gave them:

- excess molar enthalpy ([1]; x2 = 0.095): 0.0949 ± 0.00478 kcal/mol
- excess molar enthalpy ([1]; x2 = 0.209): 0.14 ± 0.00717 kcal/mol
- excess molar enthalpy ([1]; x2 = 0.304): 0.154 ± 0.00789 kcal/mol
- excess molar enthalpy ([1]; x2 = 0.4): 0.149 ± 0.00765 kcal/mol
- excess molar enthalpy ([1]; x2 = 0.497): 0.132 ± 0.00669 kcal/mol
- excess molar enthalpy ([1]; x2 = 0.595): 0.109 ± 0.0055 kcal/mol
- excess molar enthalpy ([1]; x2 = 0.702): 0.0832 ± 0.0043 kcal/mol
- excess molar enthalpy ([1]; x2 = 0.8): 0.0565 ± 0.00287 kcal/mol
- excess molar enthalpy ([1]; x2 = 0.899): 0.0286 ± 0.00148 kcal/mol
Compound: C=CCCCCCC [oct-1-ene] + CCCCO

- excess molar enthalpy ([1]; x2 = 0.096): 0.0801 ± 0.00406 kcal/mol
- excess molar enthalpy ([1]; x2 = 0.192): 0.105 ± 0.00526 kcal/mol
- excess molar enthalpy ([1]; x2 = 0.307): 0.12 ± 0.00598 kcal/mol
- excess molar enthalpy ([1]; x2 = 0.403): 0.118 ± 0.00598 kcal/mol
- excess molar enthalpy ([1]; x2 = 0.5): 0.106 ± 0.00526 kcal/mol
- excess molar enthalpy ([1]; x2 = 0.598): 0.0912 ± 0.00454 kcal/mol
- excess molar enthalpy ([1]; x2 = 0.697): 0.0724 ± 0.00359 kcal/mol
- excess molar enthalpy ([1]; x2 = 0.802): 0.0491 ± 0.00263 kcal/mol
- excess molar enthalpy ([1]; x2 = 0.9): 0.0233 ± 0.00122 kcal/mol
Compound: C=CCCCCCC [oct-1-ene] + CCCCCCO

- excess molar enthalpy ([1]; x2 = 0.097): 0.0699 ± 0.00359 kcal/mol
- excess molar enthalpy ([1]; x2 = 0.194): 0.0935 ± 0.00478 kcal/mol
- excess molar enthalpy ([1]; x2 = 0.292): 0.104 ± 0.00526 kcal/mol
- excess molar enthalpy ([1]; x2 = 0.391): 0.103 ± 0.00526 kcal/mol
- excess molar enthalpy ([1]; x2 = 0.49): 0.0942 ± 0.00478 kcal/mol
- excess molar enthalpy ([1]; x2 = 0.6): 0.0814 ± 0.00406 kcal/mol
- excess molar enthalpy ([1]; x2 = 0.699): 0.0631 ± 0.00311 kcal/mol
- excess molar enthalpy ([1]; x2 = 0.799): 0.0429 ± 0.0022 kcal/mol
- excess molar enthalpy ([1]; x2 = 0.899): 0.0188 ± 0.00098 kcal/mol
Compound: C=CCCCCCC [oct-1-ene] + CCCCCCCCO

- mass density [2]: 710.88 ± 0.64 kg/m3
Compound: C=CCCCCCC [oct-1-ene]
